Our source for the IC50 values is patent US10377770B2 (Novartis AG, priority 2015, dated 2019).

For the assay, the target named is C-Raf FL (full length CRAF with Y340E and Y341E activating mutations, co-expressed with h14-3-3 zeta) (Homo sapiens (Human), UniProt P04049, Y340E/Y341E). The assay is described as follows: In vitro Raf activity determination, AlphaScreen p-MEK readout, c-Raf (C-Raf FL). The format is biochemical. To be noted: c-Raf approximately 4 nM, ATP 1 μM, pre-incubation 60 minutes, reaction 1 hour. In outline:
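Full-length C-Raf (~4 nM) pre-incubated 60 min at room temperature with compound and kinase-dead biotinylated MEK1 (~10 nM) in Tris pH 7.5, 15 mM MgCl2, BSA, DTT. Reaction started with 1 μM ATP and run 1 h at room temperature. Phospho-MEK detected by AlphaScreen with anti-p-MEK antibody.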
(In general: Alpha assays give light when donor and acceptor beads are brought close together.)

What is called IC50 is the concentration needed to halve the response being measured. A high value points to weaker potency in that assay. In turn, `Cc1ccc(NC(=O)c2ccnc(C(F)(F)F)c2)cc1-c1cnc2c(c1)N1CCOC[C@H]1C[C@@H]2C` [Example 521, N-(4-methyl-3-((4aR,6S)-6-methyl-1,2,4,4a,5,6-hexahydro-[1,4]oxazino[4,3-a][1,5]naph-thyridin-9-yl)phenyl)-2-(trifluoromethyl)iso-nicotinamide] yielded an IC50 of 0.5 nM.
Regarding `Cc1ccc(NC(=O)c2ccnc(C(F)(F)F)c2)cc1-c1cnc2c(c1)N1CCOC[C@H]1C[C@H]2C` [Example 522, N-(4-methyl-3-((4aR,6R)-6-methyl-1,2,4,4a,5,6-hexahydro-[1,4]oxazino[4,3-a][1,5]naph-thyridin-9-yl)phenyl)-2-(trifluoromethyl)iso-nicotinamide], the IC50 came to 0.1 nM.
The result for `Cc1ccc(NC(=O)c2ccnc(C(C)(C)F)c2)cc1-c1ccc2c(c1)N1CCOC[C@H]1[C@](F)(CN)C2` [Example 525, N-(3-((4aS,5R)-5-(aminomethyl)-5-fluoro-1,2,4,4a,5,6-hexahydro-[1,4]oxazino[4,3-a]quinolin-9-yl)-4-methylphenyl)-2-(2-fluoropropan-2-yl)isonicotinamide] reads 1.5 nM.
The figure for `Cc1ncc(NC(=O)c2cccc(C(F)(F)F)c2)cc1-c1ccc2c(c1)N1CCOC[C@H]1[C@](F)(CN)C2` [Example 526, N-(5-((4aS,5R)-5-(aminomethyl)-5-fluoro-1,2,4,4a,5,6-hexahydro-[1,4]oxazino[4,3-a]quinolin-9-yl)-6-methylpyridin-3-yl)-3-(trifluoromethyl)benzamide] is 2.6 nM; for `Cc1ccc(NC(=O)c2ccnc(C(F)(F)F)c2)cc1-c1cnc2c(c1)N1CCOC[C@H]1C(C)(C)[C@H]2N` [Example 527] it is 0.9 nM.
On to `Cc1ccc(NC(=O)c2ccnc(C(F)(F)F)c2)cc1-c1ccc2c(c1)N1CCOCC[C@H]1C(F)(F)[C@H]2O` [Example 528], for which inhibition was half-maximal at 0.7 nM (IC50).
The figure for `CC(=O)N[C@H]1c2ncc(-c3cc(NC(=O)c4ccnc(C(F)(F)F)c4)ccc3C)cc2N2CCOC[C@H]2C1(C)C` [Example 529, N-(3-((4aR,6R)-6-acetamido-5,5-dimethyl-1,2,4,4a,5,6-hexahydro-[1,4]oxazino[4,3-a][1,5]naphthyridin-9-yl)-4-methylphenyl)-2-(trifluoromethyl)isonicotinamide] is 2.3 nM.
Compound `CNC[C@@H]1Cc2ncc(-c3cc(NC(=O)c4ccnc(C(F)(F)F)c4)ccc3C)cc2N2CCOC[C@@H]12` [Example 530, N-(4-methyl-3-((4aR,5S)-5-((methylamino)meth-yl)-1,2,4,4a,5,6-hexahydro-[1,4]oxazino[4,3-a][1,5]naphthyridin-9-yl)phenyl)-2-(trifluoromethyl)iso-nicotinamide] returned a 50% inhibitory concentration (IC50) of 0.4 nM.
In the case of `CNC[C@H]1Cc2ncc(-c3cc(NC(=O)c4ccnc(C(F)(F)F)c4)ccc3C)cc2N2CCOC[C@H]12` [Example 531, N-(4-methyl-3-((4aS,5R)-5-((methylamino)meth-yl)-1,2,4,4a,5,6-hexahydro-[1,4]oxazino[4,3-a][1,5]naphthyridin-9-yl)phenyl)-2-(trifluoromethyl)iso-nicotinamide], the IC50 was determined as 0.2 nM.
The result for `CC[C@@H]1Oc2nnc(-c3cc(NC(=O)c4ccnc(C(C)(F)F)c4)ccc3C)cc2N2CCOC[C@H]12` [Example 532, 2-(1,1-Difluoroethyl)-N-(3-((6S,6aR)-6-ethyl-6a,7,9,10-tetrahydro-6H-[1,4]oxazino[4,3-d]pyridazino[3,4-b][1,4]oxazin-2-yl)-4-methylphenyl)isonicotinamide] reads 0.2 nM; that for `CC[C@H]1Oc2nnc(-c3cc(NC(=O)c4ccnc(C(C)(F)F)c4)ccc3C)cc2N2CCOC[C@H]12` [Example 533, 2-(1,1-difluoroethyl)-N-(3-((6R,6aR)-6-ethyl-6a,7,9,10-tetrahydro-6H-[1,4]oxazino[4,3-d]pyridazino[3,4-b][1,4]oxazin-2-yl)-4-methylphenyl)isonicotinamide], 0.1 nM.
Compound `CC[C@@H]1Oc2nnc(-c3cc(NC(=O)c4ccnc(C(C)(F)F)c4)ccc3C)cc2N2CCOC[C@@H]12` [Example 534, 2-(1,1-difluoroethyl)-N-(3-((6S,6aS)-6-ethyl-6a,7,9,10-tetrahydro-6H-[1,4]oxazino[4,3-d]pyridazino[3,4-b][1,4]oxazin-2-yl)-4-methylphenyl)isonicotinamide] registered an IC50 of 0.1 nM.
“(R)-2-(1,1- difluoroethyl)-3- fluoro-N-(3-(7-(2- hydroxyethyl)-6- oxo-2,4,4a,5,6,7- hexahydro-1H- [1,4]oxazino[4,3- d]pyrido[2,3- b][1,4]diazepin-10- yl)-4- methylphenyl) isonicotinamide [Example 308]” displayed an IC50 of 0.7 nM.
The result for “N-(3-(8-(2- hydroxyethyl)-7- oxo- 1,2,4,5,5a,6,7,8- octahydropyrido[3′, 2′:2,3][1,4]diazepino [1,7- d][1,4]oxazepin- 11-yl)-4- methylphenyl)-2- (trifluoromethyl) isonicotinamide [Example 320]” reads 0.8 nM.
